Test results as given in patent US20190064177A1, “INCORPORATING COMPETITIVE BINDING INFORMATION INTO MOLECULAR ARRAY ANALYSIS TO GENERATE FUNCTION NETWORKS OF INTERACTIONS” (ARIZONA BOARD OF REGENTS ON BEHALF OF ARIZONA STATE …, priority 2017, published 2019).

tested on: diaphorase; assay: fluorescently labeled diaphorase binding to peptide array with or without excess FAD; settings: 1 micromolar labeled diaphorase, excess FAD present; 65535 is detector saturation
Protocol: Measurements were performed in which diaphorase was bound to an array of about 126,000 unique sequences. The sequences were chosen simply to cover sequence space. 16 of the natural 20 amino acids were used to make up these sequences with C, I, M and T omitted. The diaphorase was fluorescently labeled and each peptide sequence feature was scanned and fluorescence recorded on the array. Diaphorase bound tightly to some peptides and not at all to others. Two different concentrations of diaphorase were used, 1 and 10 micromolar, and the diaphorase was either bound in the presence of excess FAD or not. […] Indeed the Pearson correlation coefficient between w/ and w/o FAD was >0.97, which actually speaks to the reproducibility of this dataset. However, there are some differences as shown on the scatter plot of FIG. 1. When one takes a ratio of the binding without FAD and the binding with FAD, one finds the following top 30 ratios (Table 1): Note that all these sequences end with a GSG linker sequence. Because there are two concentrations, one can easily check for consistency. Note that 65535 is detector saturation, so one has to ignore those values. For this reason, the lower concentration is used most of the time. […] It appears that this was some kind of error and was ignored in subsequent analysis. A similar conclusion can be made with the 7th highest value. Looking at the sequences, RW or at least R or K followed by a nonpolar or aromatic amino acid at the N-terminus. This is interesting as FAD is negatively charged, though the adenine in FAD looks a bit like tryptophan (see FIG. 2).

| 1 microM FAD (array fluorescence of bound diaphorase) | Sequence |
| --- | --- |
| 2049.75 | DLDKAFGGSG [array peptide with C-terminal GSG linker] |
| 1245.75 | RYNLYKPSDGSG [array peptide with C-terminal GSG linker] |
| 2926 | YRNAAWFSGGSG [array peptide with C-terminal GSG linker] |
| 3860.75 | RWKYQKFNGGSG [array peptide with C-terminal GSG linker] |
| 2103.25 | RFGQNLPLGGSG [array peptide with C-terminal GSG linker] |
| 4971.5 | RYAYFQHLGGSG [array peptide with C-terminal GSG linker] |
| 3876 | RSHPKHNVGSG [array peptide with C-terminal GSG linker] |

same assay, conditions: 1 micromolar labeled diaphorase, no FAD; 65535 is detector saturation

| 1 micro no FAD (array fluorescence of bound diaphorase) | Sequence |
| --- | --- |
| 607.25 | DLDKAFGGSG [array peptide with C-terminal GSG linker] |
| 3569.5 | RYNLYKPSDGSG [array peptide with C-terminal GSG linker] |
| 8372.25 | YRNAAWFSGGSG [array peptide with C-terminal GSG linker] |
| 10165 | RWKYQKFNGGSG [array peptide with C-terminal GSG linker] |
| 5802.25 | RFGQNLPLGGSG [array peptide with C-terminal GSG linker] |
| 13584.75 | RYAYFQHLGGSG [array peptide with C-terminal GSG linker] |
| 1953.667 | RSHPKHNVGSG [array peptide with C-terminal GSG linker] |

same assay, conditions: 10 micromolar labeled diaphorase, excess FAD present; 65535 is detector saturation

| 10 microM FAD (array fluorescence of bound diaphorase) | Sequence |
| --- | --- |
| 2142.25 | DLDKAFGGSG [array peptide with C-terminal GSG linker] |
| 18165 | RYNLYKPSDGSG [array peptide with C-terminal GSG linker] |
| 43282 | YRNAAWFSGGSG [array peptide with C-terminal GSG linker] |
| 46173.5 | RWKYQKFNGGSG [array peptide with C-terminal GSG linker] |
| 34712 | RFGQNLPLGGSG [array peptide with C-terminal GSG linker] |
| 64053.5 | RYAYFQHLGGSG [array peptide with C-terminal GSG linker] |
| 12238.917 | RSHPKHNVGSG [array peptide with C-terminal GSG linker] |

same assay, conditions: 10 micromolar labeled diaphorase, no FAD; 65535 is detector saturation

| 10 microM no FAD (array fluorescence of bound diaphorase) | Sequence |
| --- | --- |
| 1853 | DLDKAFGGSG [array peptide with C-terminal GSG linker] |
| 50327.75 | RYNLYKPSDGSG [array peptide with C-terminal GSG linker] |
| 65535 | YRNAAWFSGGSG [array peptide with C-terminal GSG linker] |
| 61301.5 | RWKYQKFNGGSG [array peptide with C-terminal GSG linker] |
| 63502.5 | RFGQNLPLGGSG [array peptide with C-terminal GSG linker] |
| 65535 | RYAYFQHLGGSG [array peptide with C-terminal GSG linker] |
| 17018.417 | RSHPKHNVGSG [array peptide with C-terminal GSG linker] |

same assay, conditions: ratio of binding without FAD to binding with FAD, 1 micromolar diaphorase

| 1 microM noFAD/FAD | Sequence |
| --- | --- |
| 0.2963 | DLDKAFGGSG [array peptide with C-terminal GSG linker] |
| 2.865 | RYNLYKPSDGSG [array peptide with C-terminal GSG linker] |
| 2.861 | YRNAAWFSGGSG [array peptide with C-terminal GSG linker] |
| 2.633 | RWKYQKFNGGSG [array peptide with C-terminal GSG linker] |
| 2.759 | RFGQNLPLGGSG [array peptide with C-terminal GSG linker] |
| 2.733 | RYAYFQHLGGSG [array peptide with C-terminal GSG linker] |
| 0.504 | RSHPKHNVGSG [array peptide with C-terminal GSG linker] |

same assay, conditions: ratio of binding without FAD to binding with FAD, 10 micromolar diaphorase

| 10 microM noFAD/FAD | Sequence |
| --- | --- |
| 0.865 | DLDKAFGGSG [array peptide with C-terminal GSG linker] |
| 2.771 | RYNLYKPSDGSG [array peptide with C-terminal GSG linker] |
| 1.514 | YRNAAWFSGGSG [array peptide with C-terminal GSG linker] |
| 1.328 | RWKYQKFNGGSG [array peptide with C-terminal GSG linker] |
| 1.829 | RFGQNLPLGGSG [array peptide with C-terminal GSG linker] |
| 1.023 | RYAYFQHLGGSG [array peptide with C-terminal GSG linker] |
| 1.391 | RSHPKHNVGSG [array peptide with C-terminal GSG linker] |

same assay, conditions: ratio without/with FAD calculated from measured binding values, 1 micromolar diaphorase

| Meas. ratio | Sequence |
| --- | --- |
| 0.71 | VSWVFGLGHEGGS |
| 2.35 | WRSVYVPNGGSG [array peptide with C-terminal GSG linker] |
| 0.70 | GYHLFEKLYFDGS |
| 2.18 | WRPFWKNLGGSG [array peptide with C-terminal GSG linker] |
| 0.87 | FLQFLGGSG [array peptide with C-terminal GSG linker] |
| 0.30 | DLDKAFGGSG [array peptide with C-terminal GSG linker] |
| 2.87 | RYNLYKPSDGSG [array peptide with C-terminal GSG linker] |
| 2.86 | YRNAAWFSGGSG [array peptide with C-terminal GSG linker] |
| 0.70 | SGVLQFFGGSG [array peptide with C-terminal GSG linker] |
| 2.44 | PRFNWKPYGGSG [array peptide with C-terminal GSG linker] |
| 2.63 | RWKYQKFNGGSG [array peptide with C-terminal GSG linker] |
| 2.54 | WRLNPLQFGGSG [array peptide with C-terminal GSG linker] |
| 2.76 | RFGQNLPLGGSG [array peptide with C-terminal GSG linker] |
| 2.73 | RYAYFQHLGGSG [array peptide with C-terminal GSG linker] |
| 0.50 | RSHPKHNVGSG [array peptide with C-terminal GSG linker] |
